In the supplement of paper PMC10307832:

Experiments:
Assay in all cases: relative viability (nuclei count vs DMSO), 5 days (fraction); higher = more cells survive
[1] = compound: CC(C)C[C@H](NC(=O)[C@H](Cc1ccccc1)NC(=O)c1cnccn1)B(O)O [Bortezomib] + CS(=O)(=O)N1CCN(Cc2cc3nc(-c4cccc5[nH]ncc45)nc(N4CCOCC4)c3s2)CC1 [Pictilisib] (partner 1 µM)
Summary of the method: (§1)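 One day after seeding in 1536-well plates, lung cancer cell lines were dosed by pin tool. Dosing was either single-drug or a fixed anchor-drug dose plus five library-drug doses (not always all listed) in √10 steps. After 5 days, nuclei were stained in one fix-and-stain step and counted on 4× images, and relative viability is the nuclei count of treated wells over that of vehicle wells, given as the median of duplicate plates.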

[2] = compound: CC(C)C[C@H](NC(=O)[C@H](Cc1ccccc1)NC(=O)c1cnccn1)B(O)O [Bortezomib] + COc1cc2c(Oc3ccc(NC(=O)C4(C(=O)Nc5ccc(F)cc5)CC4)cc3F)ccnc2cc1OCCCN1CCOCC1 [Foretinib] (partner 0.25 µM)
Summary of the method: as §1

[3] = compound: CC1=CC(=NN1)NC2=CC(=NC(=N2)/C=C/C3=CC=CC=C3)N4CCN(CC4)C + Nc1nc2[nH]cc(CCc3ccc(C(=O)N[C@@H](CCC(=O)O)C(=O)O)cc3)c2c(=O)[nH]1 [Pemetrexed] (partner 0.2 µM)
Summary of the method: as §1

[4] = compound: COC1=CC(c2cc3ccccc3[nH]2)=N/C1=C\c1[nH]c(C)cc1C [Obatoclax] + Cc1nc(Nc2ncc(C(=O)Nc3c(C)cccc3Cl)s2)cc(N2CCN(CCO)CC2)n1 [Dasatinib] (partner 0.075 µM)
Summary of the method: as §1

NCI-H650
relative viability ([1]; first compound 0.000632 µM): 0.695
relative viability ([1]; first compound 0.002 µM): 0.551
relative viability ([1]; first compound 0.006325 µM): 0.328
relative viability ([1]; first compound 0.02 µM): 0.205
relative viability ([2]; first compound 0.000632 µM): 1.08
relative viability ([2]; first compound 0.002 µM): 0.847
relative viability ([2]; first compound 0.006325 µM): 0.4
relative viability ([2]; first compound 0.02 µM): 0.173
relative viability ([3]; first compound 0.08 µM): 1.01
relative viability ([3]; first compound 0.253 µM): 1.08
relative viability ([3]; first compound 0.8 µM): 1.01
relative viability ([3]; first compound 2.53 µM): 0.727
relative viability ([3]; first compound 8 µM): 0.307
relative viability ([4]; first compound 0.01 µM): 0.451
relative viability ([4]; first compound 0.03162 µM): 0.431
relative viability ([4]; first compound 0.3162 µM): 0.279
relative viability ([4]; first compound 1 µM): 0.263
